Bounds are passed on as bounds.

This experiment deals with HBV viral production from HepAD38 cells. The experiment in a line: Activity of test compounds on viral production from HepAD38 cells (viral load by qPCR of HBV core sequence in supernatant). It counts as cell-based. As to conditions: Hepatitis B virus, 120 h, 5 days incubation, HBV DNA in supernatant by qPCR, top concentration 10 μM, read-out: Viral Load EC50 Activity range. Here is the method: Assay Measuring Activity of Test Compounds on Viral Production from HepAD38 Cells
HepAD38 cells grown in a T-150 flask (Corning, cat #: 430825) with Growth Medium (DMEM/F12 (1:1) (Hyclone, cat #: SH30023.02), 1×Pen/Strep (Invitrogen, cat #: 15140-122), 10% FBS (Tissue Culture Biologics, cat #: 101), 250 μg/mL G418 (Alfa Aesar, cat #: J62671), 1 μg/mL Tetracycline (Teknova, cat #: T3320)) were detached with 0.25% trypsin-EDTA (Invitrogen, cat #: 25200-056). Tetracycline-free treatment medium (15 mL DMEM/F12 (1:1) 1× Pen/step, with 2% FBS, Tet-system approved (Clontech, cat #: 631106) were then added to mix, transferred into a 50 ml conical tube (Falcon, cat #: 21008-918) and spun at 1300 rpm for 5 min. Pelleted cells were then re-suspended/washed with 50 mL of 1×DPBS (Invitrogen, cat #: 14190-136) 2 times and 50 mL treatment medium twice. HepAD38 cells were then re-suspended with 10 mL of treatment medium, syringed and counted. Wells of 96-well clear bottom TC plate (Corning, cat #: 3904) were seeded at 50,000 cells/well in 180 μL of treatment medium, and 20 μL of either 10% DMSO (Sigma, cat #: D4540) as controls or a 10× solution of test compounds in 10% DMSO in treatment media was added for a final compound concentration starting at 10 μM, and plates were incubated in 5% CO2 incubator at 37° C. for 5 days.
Subsequently viral load production was assayed by quantitative PCR (qPCR) of the HBV core sequence. PCR reaction mixture containing forward primers HBV-f 5′-CTGTGCCTTGGGTGGCTTT-3′, which is SEQ ID NO 1, (IDT DNA), Reverse primers HBV-r 5′-[…]-3′, which is SEQ ID NO 2 (IDT DNA), Fluorescent TaqMan™ Probes HBV-probe 5′-FAM/AGCTCCAAA/ZEN/[…]/3IABkFQ-3′ (IDT DNA), which is SEQ ID NO 3, 10 μL/well of PerfeCTa® qPCR ToughMix® (Quanta Biosciences, Cat #: 95114-05K), and 6 µL/well of DEPC water (Alfa Aesar, cat #: J62087) was prepared. Four μL of supernatant was added to 16 μL of the reaction mixture in a qPCR plate (Applied Biosytems, Cat #: 4309849), sealed with a film (Applied Biosystems, Cat #: 4311971), centrifuged for a few seconds, and subsequently run on an Applied Biosystems VIIA7. The PCR mixture was incubated at 45° C. for 5 min, then 95° C. for 10 min, followed by 40 cycles of 10 seconds at 95° C. and 20 seconds at 60° C. Viral load was quantified against known HBV DNA standards by using ViiA™ 7 Software. Viral load in the supernatant from wells with treated cells were compared against viral load in supernatant from DMSO control wells (≥3 per plate). Cell viability assay was performed with CellTiter-Glo Luminescent Cell Viability Assay (Promega, cat #: G7573) with modification. Mixed appropriate amount of CellTiter-Glo (CTG) 1×DPBS in a 1:1 ratio, added 100 uL of the mixture to each well followed completely removal of all supernatant in each well without touching cell surface. Incubated the plate at room temperature for 10 min on an orbital shaker, and then read the plate with a plate reader (TECAN M1000 or Envision). EC50 or CC50 values were calculated through curve-fitting of the four-parameter nonlinear-logistic-regression model (GraphPad Prism or Dotmatics). CC50 values were all >10 μM.
On the technique in general: Quantitative PCR measures a nucleic acid by following its amplification.
For orientation: EC50 means the concentration giving half of the maximal effect. For `NC(=O)CN1C(C(=O)Nc2ccc(F)c(Cl)c2)CC(c2nccs2)NS1(=O)=O` (stereo not shown), the concentration for a half-maximal effect (EC50) lay in the range of 1000 to 5000 nM.

Regarding `Cc1cnc(C2CC(C(=O)Nc3ccc(F)c(Cl)c3)N(C)S(=O)(=O)N2)s1` (stereo not shown), the half-maximal effective concentration (EC50) is < 1000 nM.

`Cc1cnc([C@H]2C[C@@H](C(=O)Nc3ccc(F)c(Cl)c3)N(C)S(=O)(=O)N2)s1`: the half-maximal effective concentration (EC50) was < 1000 nM. Then `Cc1cnc([C@@H]2C[C@H](C(=O)Nc3ccc(F)c(Cl)c3)N(C)S(=O)(=O)N2)s1`, with > 5000 nM; and `CN1C(C(=O)Nc2ccc(F)c(Cl)c2)CC(c2ncc(-c3ccccc3)s2)NS1(=O)=O` (stereo not shown), with < 1000 nM. As for `CN1[C@H](C(=O)Nc2ccc(F)c(Cl)c2)C[C@H](c2ncc(-c3ccccc3)s2)NS1(=O)=O`, the figure is < 1000 nM; as for `CN1[C@@H](C(=O)Nc2ccc(F)c(Cl)c2)C[C@@H](c2ncc(-c3ccccc3)s2)NS1(=O)=O`, 1000 to 5000 nM; as for `CN1C(C(=O)Nc2ccc(F)cc2)CC(c2cccs2)NS1(=O)=O` (racemic) [HBV-CSU-007, Cis-N-(4-Fluorophenyl)-2-methyl-5-(thiophen-2-yl)-1,2,6-thiadiazinane-3-carboxamide 1,1-dioxide], < 1000 nM. As for `CN1C(C(=O)Nc2cccc(Cl)c2)CC(c2cccs2)NS1(=O)=O` (racemic) [HBV-CSU-010, Cis-N-(3-chlorophenyl)-2-methyl-5-(thiophen-2-yl)-1,2,6-thiadiazinane-3-carboxamide 1,1-dioxide], the figure is < 1000 nM; as for `Cc1cccc(NC(=O)C2CC(c3cccs3)NS(=O)(=O)N2C)c1` (racemic) [HBV-CSU-013, Cis-2-Methyl-5-(thiophen-2-yl)-N-(m-tolyl)-1,2,6-thiadiazinane-3-carboxamide 1,1-dioxide], < 1000 nM. Take `CN1C(C(=O)Nc2ccc(F)c(Br)c2)CC(c2cccs2)NS1(=O)=O` (racemic) [HBV-CSU-016, Cis-N-(3-Bromo-4-fluorophenyl)-2-methyl-5-(thiophen-2-yl)-1,2,6-thiadiazinane-3-carboxamide 1,1-dioxide]: the EC50 was < 1000 nM. Then `CN1C(C(=O)Nc2cccc(C#N)c2)CC(c2cccs2)NS1(=O)=O` (racemic) [HBV-CSU-020, Cis-N-(3-cyanophenyl)-2-methyl-5-(thiophen-2-yl)-1,2,6-thiadiazinane-3-carboxamide 1,1-dioxide], with < 1000 nM; and `CCN1C(C(=O)Nc2ccc(F)c(Cl)c2)CC(c2cccs2)NS1(=O)=O` (racemic) [HBV-CSU-024, Cis-N-(3-chloro-4-fluorophenyl)-2-ethyl-5-(thiophen-2-yl)-1,2,6-thiadiazinane-3-carboxamide 1,1-dioxide], with < 1000 nM; and `COCCN1C(C(=O)Nc2ccc(F)c(Cl)c2)CC(c2cccs2)NS1(=O)=O` (racemic) [HBV-CSU-025, Cis-N-(3-chloro-4-fluorophenyl)-2-(2-methoxyethyl)-5-(thiophen-2-yl)-1,2,6-thiadiazinane-3-carboxamide 1,1-dioxide], with < 1000 nM. On to `CN1C(C(=O)Nc2ccc(F)c(Cl)c2)CC(c2nccs2)NS1(=O)=O` (racemic) [HBV-CSU-027, Cis-N-(3-chloro-4-fluorophenyl)-2-methyl-5-(thiazol-2-yl)-1,2,6-thiadiazinane-3-carboxamide 1,1-dioxide], for which the EC50 was < 1000 nM.

On to `CN1C(C(=O)Nc2ccc(F)c(Cl)c2)CC(c2ccccn2)NS1(=O)=O` (racemic) [HBV-CSU-031, Cis-N-(3-Chloro-4-fluorophenyl)-2-methyl-5-(pyridin-2-yl)-1,2,6-thiadiazinane-3-carboxamide 1,1-dioxide], for which the concentration for a half-maximal effect (EC50) was < 1000 nM.

Turning to `CN1C(C(=O)Nc2cc(F)c(F)c(F)c2)CC(c2cccs2)NS1(=O)=O` (racemic) [HBV-CSU-036, Cis-2-Methyl-5-(thiophen-2-yl)-N-(3,4,5-trifluorophenyl)-1,2,6-thiadiazinane-3-carboxamide 1,1-dioxide], the EC50 is < 1000 nM. As for `CN1C(C(=O)Nc2ccc(F)c(C#N)c2)CC(c2cccs2)NS1(=O)=O` (racemic) [HBV-CSU-045, Cis-N-(3-cyano-4-fluorophenyl)-2-methyl-5-(thiophen-2-yl)-1,2,6-thiadiazinane-3-carboxamide 1,1-dioxide], the figure is < 1000 nM; as for `COCCN1C(C(=O)Nc2ccc(F)c(Cl)c2)CC(c2nccs2)NS1(=O)=O` (racemic) [HBV-CSU-058, Cis-N-(3-chloro-4-fluorophenyl)-2-(2-methoxyethyl)-5-(thiazol-2-yl)-1,2,6-thiadiazinane-3-carboxamide 1,1-dioxide], < 1000 nM; as for `COCCN1C(C(=O)Nc2ccc(F)c(Br)c2)CC(c2nccs2)NS1(=O)=O` (racemic) [HBV-CSU-059, Cis-N-(3-bromo-4-fluorophenyl)-2-(2-methoxyethyl)-5-(thiazol-2-yl)-1,2,6-thiadiazinane-3-carboxamide 1,1-dioxide], < 1000 nM. As for `CC(C)(C)OCCN1C(C(=O)Nc2ccc(F)c(Cl)c2)CC(c2nccs2)NS1(=O)=O` (racemic) [HBV-CSU-071, Cis-2-(2-(tert-Butoxy)ethyl)-N-(3-chloro-4-fluorophenyl)-5-(thiazol-2-yl)-1,2,6-thiadiazinane-3-carboxamide 1,1-dioxide], the figure is 1000 to 5000 nM; as for `O=C(Nc1ccc(F)c(Cl)c1)C1CC(c2nccs2)NS(=O)(=O)N1CCOC(F)(F)F` (racemic) [HBV-CSU-072, Cis-N-(3-Chloro-4-fluorophenyl)-5-(thiazol-2-yl)-2-(2-(trifluoromethoxy)ethyl)-1,2,6-thiadiazinane-3-carboxamide 1,1-dioxide], < 1000 nM. Then `CS(=O)(=O)CCN1C(C(=O)Nc2ccc(F)c(Cl)c2)CC(c2nccs2)NS1(=O)=O` (racemic) [HBV-CSU-073, Cis-N-(3-Chloro-4-fluorophenyl)-2-(2-(methylsulfonyl)ethyl)-5-(thiazol-2-yl)-1,2,6-thiadiazinane-3-carboxamide 1,1-dioxide], with > 5000 nM. On to `CN(C)CCN1C(C(=O)Nc2ccc(F)c(Cl)c2)CC(c2nccs2)NS1(=O)=O` (racemic) [HBV-CSU-074, Cis-N-(3-Chloro-4-fluorophenyl)-2-(2-(dimethylamino)ethyl)-5-(thiazol-2-yl)-1,2,6-thiadiazinane-3-carboxamide 1,1-dioxide], for which the concentration giving a half-maximal response (EC50) was > 5000 nM. As for `O=C(Nc1ccc(F)c(Cl)c1)C1CC(c2nccs2)NS(=O)(=O)N1CCCO` (racemic) [HBV-CSU-078, Cis-N-(3-Chloro-4-fluorophenyl)-2-(3-hydroxypropyl)-5-(thiazol-2-yl)-1,2,6-thiadiazinane-3-carboxamide 1,1-dioxide], the figure is 1000 to 5000 nM.

In the case of `O=C(Nc1ccc(F)c(Cl)c1)C1CC(c2nccs2)NS(=O)(=O)N1CC1CCCO1` (racemic) [HBV-CSU-079-Rac-A, Cis-N-(3-Chloro-4-fluorophenyl)-2-((tetrahydrofuran-2-yl)methyl)-5-(thiazol-2-yl)-1,2,6-thiadiazinane-3-carboxamide 1,1-dioxide], the EC50 is < 1000 nM.

Regarding `O=C(Nc1ccc(F)c(Cl)c1)C1CC(c2nccs2)NS(=O)(=O)N1CCN1CCOCC1` (racemic) [HBV-CSU-082, Cis-N-(3-Chloro-4-fluorophenyl)-2-(2-morpholinoethyl)-5-(thiazol-2-yl)-1,2,6-thiadiazinane-3-carboxamide 1,1-dioxide], the EC50 is > 5000 nM. Then `COC(C)(C)CCN1C(C(=O)Nc2ccc(F)c(Cl)c2)CC(c2nccs2)NS1(=O)=O` (racemic) [HBV-CSU-083, Cis-N-(3-Chloro-4-fluorophenyl)-2-(3-methoxy-3-methylbutyl)-5-(thiazol-2-yl)-1,2,6-thiadiazinane-3-carboxamide 1,1-dioxide], with > 5000 nM.

The record behind these values is patent US11078170B2 (Assembly Biosciences, Inc., priority 2017, dated 2021).
